Laboratory results published in US9200046B2, “Reporter system for high throughput screening of compounds and uses thereof” (priority 2011, dated 2015).
Where two headings read alike, the source gives them in different places.

Biological target: Nrf2-Keap1 complex (Homo sapiens, UniProt Q14145)
Assay: cell-based
Assay type: cell-based
Details: for activation at 16 µM / activation at 32 µM: 3 h; for activation at 16 µM: read-out: Activation 100 nL; for activation at 32 µM: read-out: Activation 200 nL; for fold less effective than quercetin and fisetin: flavone SAR
[1] = Table 2, 100 nL compound, screen run at 16 and 32 μM, 3 hr
[2] = Table 2, 200 nL compound, screen run at 16 and 32 μM, 3 hr
[3] = Table 1A, 100 nL compound, screen run at 16 and 32 μM, 3 hr
[4] = Table 1A, 200 nL compound, screen run at 16 and 32 μM, 3 hr

Sequence of Nrf2-Keap1 complex (Q14145 whole entry, one chain of several): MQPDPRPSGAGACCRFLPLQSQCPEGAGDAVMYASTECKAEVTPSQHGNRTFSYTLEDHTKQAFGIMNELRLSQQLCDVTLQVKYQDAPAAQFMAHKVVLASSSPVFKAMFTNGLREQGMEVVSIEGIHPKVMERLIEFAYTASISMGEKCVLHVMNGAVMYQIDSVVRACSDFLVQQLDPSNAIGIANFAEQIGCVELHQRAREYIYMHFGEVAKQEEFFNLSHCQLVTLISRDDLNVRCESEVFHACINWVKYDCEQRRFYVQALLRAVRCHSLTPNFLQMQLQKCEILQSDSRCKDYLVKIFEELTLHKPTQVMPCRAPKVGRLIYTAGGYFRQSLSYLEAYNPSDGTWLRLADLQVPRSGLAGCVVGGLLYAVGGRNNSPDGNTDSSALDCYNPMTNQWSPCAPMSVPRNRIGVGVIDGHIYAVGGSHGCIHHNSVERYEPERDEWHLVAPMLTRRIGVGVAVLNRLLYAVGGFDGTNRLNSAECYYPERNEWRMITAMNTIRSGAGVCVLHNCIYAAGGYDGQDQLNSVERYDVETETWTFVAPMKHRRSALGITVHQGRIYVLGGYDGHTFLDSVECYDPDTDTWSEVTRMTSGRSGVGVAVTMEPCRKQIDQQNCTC

Molecule	100 nL (luminescence) [1]	200 nL (luminescence) [2]	activation at 16 µM [%]	activation at 32 µM [%]	further results
CC(=O)O[C@@H]1CC2C(C)(C)[C@H](O)CC[C@]2(C)C2CC[C@@]3(C)[C@H](c4ccoc4)OC(=O)C4OC43[C@@]21C (stereo partly drawn) [alpha-DIHYDROGEDUNOL]	720	1008	–	–	Activation 100 nL: 41%; Activation 200 nL: 29%; Neh2-luc reporter activation: 40%
O=C(O)C(S)C(S)C(=O)O (centres unmarked) [2,3-DIMERCAPTOSUCCINICACID, reference compound]	–	–	238	123	100 nL (luminescence): 4452; 200 nL (luminescence): 2760
CC(=O)N1CCN(c2ccc(OCC3CO[C@](Cn4ccnc4)(c4ccc(Cl)cc4Cl)O3)cc2)CC1 (some centres unmarked) [KETOCONAZOLE, reference compound]	–	–	–	–	100 nL (luminescence): 1144; 200 nL (luminescence): 1026; Activation 100 nL: 64%; Activation 200 nL: 33%
O=C(/C=C/c1ccccc1)c1ccc(O)cc1 [4′-HYDROXYCHALCONE]	–	–	217	76	100 nL (luminescence): 3674; 200 nL (luminescence): 1488
CC(C)c1ccc2c(c1O)CC[C@H]1C3=C(CC[C@]21C)C(=O)OC3 [TRIPTOPHENOLIDE]	832	390	35	-3	–
COc1ccc(-c2oc3ccccc3c(=O)c2O)cc1OC [3-HYDROXY-3′,4′-DIMETHOXYFLAVONE]	1504	316	85	-6	fold less effective than quercetin and fisetin: 2.5 fold
AVOCADYNOFURAN	582	1008	–	–	Activation 100 nL: 25%; Activation 200 nL: 29%
COC1=CC(=O)C[C@@H](C)[C@]12Oc1c(Cl)c(OC)cc(OC)c1C2=O [GRISEOFULVIN, reference compound]	1208	3684	41	182	–
COc1cc(/C=C/C(=O)CC(=O)/C=C/c2ccc(O)c(OC)c2)ccc1O [CURCUMIN]	4208	264	252	-4	–
COc1cc([C@@H]2c3cc4c(cc3[C@@H](O[C@@H]3O[C@@H]5CO[C@@H](C)O[C@H]5[C@H](O)[C@H]3O)[C@H]3COC(=O)[C@H]23)OCO4)cc(OC)c1O [ETOPOSIDE, reference compound]	1180	1484	40	89	–
CNC(=O)CSP(=S)(OC)OC [DIMETHOATE]	1148	3772	59	145	–
CC(=O)[O-].CC(=O)[O-].[Cd+2] [CADMIUMACETATE]	992	312	–	–	Activation 100 nL: 47%; Activation 200 nL: −6%
CC(=O)OC[C@H]1O[C@@H]([S-])[C@H](OC(C)=O)[C@@H](OC(C)=O)[C@@H]1OC(C)=O.CCP(CC)CC.[Au+] [auranofin, reference compound]	–	–	–	–	Neh2-luc reporter activation: 200%
O=c1c(-c2ccc(O)cc2)coc2cc(O)cc(O)c12 [GENISTEIN]	1980	1748	106	93	–
CO/N=C(\C(=O)N[C@@H]1C(=O)N2C(C(=O)O)=C(COC(C)=O)CS[C@H]12)c1csc(N)n1 [CEFOTAXIMESODIUM, reference compound]	968	488	50	7	–
CN1CCN(CC/C=C2/c3ccccc3Sc3ccc(S(=O)(=O)N(C)C)cc32)CC1 [THIOTHIXENE, reference compound]	1500	68	55	-26	–
COc1cc(C/C=C/c2ccccc2)c(OC)cc1O [VIOLASTYRENE]	2388	1096	133	50	–
CC(=O)OC1CC[C@@]2(C)C(CC[C@H]3[C@@H]4CC=C(C(C)=O)[C@@]4(C)C(=O)C[C@@H]32)C1 (some centres unmarked) [3-ACETOXYPREGN-16-EN-12,20-DIONE]	2236	1040	214	30	–
COc1cc(/C=C/CO)ccc1O [CONIFERYLALCOHOL]	2032	2264	125	79	–
O=c1c(O)c(-c2ccc(O)cc2)oc2cc(O)cc(O)c12 [kaempferol, 3,5,7,4′-tetrahydroxyflavone]	–	–	–	–	fold less effective than quercetin and fisetin: 2.5 fold
Nc1ncnc2c1ncn2C1O[C@H](COP(=O)(O)O)[C@@H](O)[C@H]1O (some centres unmarked) [ADENOSINEPHOSPHATE, reference compound]	–	–	27	14	100 nL (luminescence) [3]: 924; 200 nL (luminescence) [4]: 556

Molecule	100 nL (luminescence) [1]	200 nL (luminescence) [2]	activation at 16 µM [%]	activation at 32 µM [%]	further results
COc1c(O)cc2c(-c3ccccc3)cc(=O)oc2c1OC [KUHLMANNIN]	596	1104	26	33	–
C[C@@H]1C(=O)O[C@H]2[C@H]1CC[C@@]1(C)C=CC(=O)[C@@]3(C)O[C@@]213 [EPOXY(4,5alpha)-4,5-DIHYDROSANTONIN]	3828	3164	–	–	Activation 100 nL: 227%; Activation 200 nL: 186%
O=C1C[C@@H](c2ccc(O)c(O)c2)Oc2cc(O)cc(O)c21 [ERIODYCTOL]	1028	768	–	–	Activation 100 nL: 76%; Activation 200 nL: 18%
Oc1cccc2cccnc12 [8-hydroxyquinoline]	–	–	–	–	Neh2-luc reporter activation: 60%
CC1=C(CC(=O)O)c2cc(F)ccc2/C1=C\c1ccc([S+](C)[O-])cc1 (centres unmarked) [reference compound]	–	–	114	188	Neh2-luc reporter activation: 200%; 100 nL (luminescence) [3]: 2692; 200 nL (luminescence) [4]: 2710
COC(=O)[C@H]1[C@H]2C[C@@H]3c4[nH]c5cc(OC)ccc5c4CCN3C[C@H]2C[C@@H](OC(=O)c2cc(OC)c(OC)c(OC)c2)[C@@H]1OC [RESERPINE, reference compound]	1120	572	36	8	–
O=c1c(-c2ccccc2)coc2cc(O)cc(O)c12 [5,7-DIHYDROXYISOFLAVONE]	964	1776	45	58	–
CC(C)=CCc1c2c(c(O)c3c(=O)c(O)c(-c4ccccc4)oc13)C=CC(C)(C)O2 [SERICETIN]	2672	800	263	20	–
C[C@]12CCC(=O)C=C1C=C[C@@H]1[C@@H]2CC[C@@]2(C)[C@H]1CC[C@@]21CCC(=O)O1 [CANRENONE, reference compound]	–	–	25	23	100 nL (luminescence): 900; 200 nL (luminescence): 832
COc1cc2c(c(OC)c1OC)-c1ccc(=O)c(O)cc1[C@@H](NC(C)=O)CC2 [COLCHICEINE]	672	584	35	11	–
N.N.[Cl][Pt][Cl] [CISPLATIN, reference compound]	1100	1496	–	–	Activation 100 nL: 36%; Activation 200 nL: 90%
NCCc1ccc(O)c(O)c1 [3-HYDROXYTYRAMINE]	–	–	37	69	100 nL (luminescence): 990; 200 nL (luminescence): 1704
COc1c(C)c2c(c(O)c1C/C=C(\C)CCC(=O)O)C(=O)OC2 [MYCOPHENOLICACID, reference compound]	904	1428	26	84	–
[H]/N=C(\N/C(=N/[H])NCCCCCCNC(=N)NC(=N)Nc1ccc(Cl)cc1)Nc1ccc(Cl)cc1 [CHLORHEXIDINE, reference compound]	2188	1750	–	–	Activation 100 nL: 147%; Activation 200 nL: 67%
O=c1c(O)cccc2cc(O)c(O)c(O)c12 [PURPUROGALLIN]	3508	2420	156	112	–
CC1CCc2cc(F)cc3c(=O)c(C(=O)O)cn1c23 (centres unmarked) [FLUMEQUINE, reference compound]	–	–	38	-2	100 nL (luminescence): 1156; 200 nL (luminescence): 368
O=C(CC[N+](=O)[O-])OC[C@H]1O[C@@H](O)[C@H](OC(=O)CC[N+](=O)[O-])[C@@H](OC(=O)CC[N+](=O)[O-])[C@@H]1OC(=O)CC[N+](=O)[O-] [[…]]	1020	1268	–	–	Activation 100 nL: 75%; Activation 200 nL: 40%
CC(=O)C(=Cc1ccccc1)CC(=O)O	1048	1348	–	–	Activation 100 nL: 78%; Activation 200 nL: 43%
CCOP(=S)(OCC)Oc1nc(Cl)c(Cl)cc1Cl [CHLORPYRIFOS]	1572	1704	90	55	–
O=c1ccn([C@@H]2O[C@H](COP(=O)([O-])OP(=O)([O-])OP(=O)([O-])O)[C@@H](O)[C@H]2O)c(=O)[nH]1.[Na+].[Na+].[Na+] [URIDINETRIPHOSPHATETRISODIUM]	612	708	–	–	Activation 100 nL: 28%; Activation 200 nL: 16%
